We go through 5 molecules from article PMC8273128 (ACS infectious diseases, 2021).

Molecules are shown by their SMILES.

Assay [1] deals with SmTGR-U597C (Schistosoma mansoni, UniProt Q962Y6). The assay can be described thus: X-ray crystallography fragment soaking and co-crystallization. The format is binding. The following applies: crystal structure of SmTGR-U597C, soaking or co-crystallization.
In assay [2] the target is T1, SmTGR WT (Schistosoma mansoni, UniProt Q962Y6). In words: biochemical.
For assay [3], the target named is SmTGR-E330A/D334A (Schistosoma mansoni, UniProt Q962Y6, D334A/E330A). The assay can be described thus: DTNB assay on SmTGR-E330A/D334A double mutant. In kind it is biochemical. The note with it: 500 μM compound.
Assay [4] has as its target T1, SmTGR WT. The assay can be described thus: Steady-state competition experiments versus NADPH. The format is biochemical. The note with it: upon increasing compound concentration from 0 to 3 mM.
For assay [5], the target named is T2, SmTGR-E337A (Schistosoma mansoni, UniProt Q962Y6, E337A).
T2 sequence (Q962Y6 1-598 E337A): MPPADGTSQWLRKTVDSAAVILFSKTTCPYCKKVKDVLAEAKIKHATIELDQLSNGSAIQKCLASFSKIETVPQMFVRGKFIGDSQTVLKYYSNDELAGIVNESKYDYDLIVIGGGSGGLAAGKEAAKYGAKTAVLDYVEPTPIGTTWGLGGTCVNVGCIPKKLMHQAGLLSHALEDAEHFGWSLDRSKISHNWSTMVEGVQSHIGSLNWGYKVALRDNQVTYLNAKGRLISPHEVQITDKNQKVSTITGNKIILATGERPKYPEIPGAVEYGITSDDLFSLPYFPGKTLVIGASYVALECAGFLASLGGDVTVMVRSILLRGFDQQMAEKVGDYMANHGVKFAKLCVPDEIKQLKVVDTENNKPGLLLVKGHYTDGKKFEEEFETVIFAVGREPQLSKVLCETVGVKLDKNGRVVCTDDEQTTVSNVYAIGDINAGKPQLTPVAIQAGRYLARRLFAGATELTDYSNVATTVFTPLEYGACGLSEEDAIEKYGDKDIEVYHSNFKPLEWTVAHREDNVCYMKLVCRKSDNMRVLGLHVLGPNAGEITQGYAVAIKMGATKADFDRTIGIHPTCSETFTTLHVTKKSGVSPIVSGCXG
The assay can be described thus: biochemical.

As to `Cc1ccc2c(O)c(C(=O)O)cnc2n1` [Compound 5, 4-hydroxy-7-methyl-1,8-naphthyridine-3-carboxylic acid], the Binding site entry in assay [1] is reported as “Site 3”.

What is called IC50 is the concentration that inhibits the measured activity by half. Read a low IC50 as greater potency in that assay. With `COc1nc2ccccc2nc1CCC(=O)O` [Compound 1, 3-(3-methoxyquinoxalin-2-yl)propanoic acid], in assay [2], the IC50 is over 3000 µM. Also, in assay [1], the Binding site entry is “Site 1 (both insoakingand in co-crystallization experiments)”.

For orientation: inhibition means the share of the control response that was lost under treatment. On to `Nc1cccc2nsnc12` [Compound 3, 4-aminopiazthiole], for which the “percentage of inhibition at 500 μM” value in assay [3] came out at 48.1 ± 6.2%. The molecule also yielded an IC50 in assay [2] of about 500 µM. For the same molecule, the inhibition at 500 µM in assay [2] (read-out: % of inhibition at 500 μM) was found to be 51.4 ± 4.1%. In addition, the Binding site result in assay [1] is reported as “Site 2”.

Take `Cc1[nH]c2ccccc2c1CC(=O)O` [Compound 2, 2-methylindole-3-acetic acid]: the “decrease of Vmax” value in assay [4] is reported as ~ 10%. Also, the IC50 in assay [2] was over 1000 µM. Moreover, the Binding site result in assay [1] is “Site 1”.

Take `OCc1c[nH]c2ccccc12` [Compound 4, indole-3-carbinol]: the values for the IC50 in assay [5] and in assay [2] were 283 ± 15 µM and 284 ± 12 µM, respectively. For the same molecule, the Binding site entry in assay [1] is “Site 2”.
